Consider 4 compounds from patent US7144901B2, “Oxadiazole derivatives and drugs containing these derivatives as the active ingredient” (ONO Pharmaceutical Co.,Ltd., priority 1999, dated 2006).

Common to all, as to format: biochemical
Assay [1] concerns the target cathepsin L (Homo sapiens, UniProt P07711). Put plainly: Measurement of cathepsin L inhibitory activity. The procedure: (iv) Measurement of Cathepsin L Inhibitory Activity
5 μL of Synthesized substrate (carbobenzoxy-L-phenylalanyl-L-arguine-4-methyl-chromanyl-7-amide or L-prolyl-L-phenylalanyl-L-arguinine-4-methyl-chromanyl-7-amide) solution and 5 μL of cysteine protease inhibitor solution of several concentrations, 80 μL of cathepsin L enzyme reaction buffer (400 mmol/L acetic acid, 4 mmol/L EDTA, 8 mmol/L DTT were mixed to adjust to pH 5.5) and 10 μL of cathepsin L enzyme solution were mixed and the increase of fluorescence intensity was measured (λex (excitation wavelength)=355 nm, λem (fluorescence wavelength)=460 nm) when reacted at 37° C.

In assay [2] the target is cathepsin B (Homo sapiens, UniProt P07858). Put plainly: Measurement of cathepsin B inhibitory activity. As to the method:
(ii) Measurement of Cathepsin B Inhibitory Activity
10 μL of Synthesized substrate (carbobenzoxy-L-arginyl-L-arginine-4-methyl-chromanyl-7-amide or carbobenzoxy-L-phenylalanyl-L-arginine-4-methyl-chromanyl-7-amide) solution of several concentrations, 10 μL of cysteine protease inhibitor solution of several concentrations, 70 μL of cathepsin B enzyme reaction buffer (mixture of 400 mmol/L in acetic acid, 4 mmol/L EDTA, 8 mmol/L DDT to adjust to pH 5.5) and 10 μL of cathepsin B enzyme solution were mixed and the increase of fluorescence intensity was measured (λex (excitation wavelength)=355 nm, λem (fluorescence wavelength)=460 nm) when reacted at 37° C.

Assay [3] deals with cathepsin S (Homo sapiens, UniProt P25774). Put plainly: Measurement of cathepsin S inhibitory activity. The procedure:
(iii) Measurement of Cathepsin S Inhibitory Activity
10 μL of synthesized substrate (carbobenzoxy-L-leucyl-L-leucyl-L-arguinine-4-methyl-chromanyl-7-amide) solution and 5 μL of cysteine protease inhibitor solution of several concentrations, 75 μL of cathepsin S enzyme reaction buffer (100 mmol/L of sodium phosphate, 2 mmol/L of EDTA, 2 mmol/L of DTT were mixed to adjust to pH 6.5) and 10 μL of cathepsin S enzyme solution were mixed and the increase of fluorescence intensity was measured (λex (excitation wavelength)=355 nm, λem (fluorescence wavelength)=460 nm) when reacted at 37° C.

The target of assay [4] is T1, cathepsin K (Homo sapiens, UniProt P43235).
T1 sequence (P43235 115-329): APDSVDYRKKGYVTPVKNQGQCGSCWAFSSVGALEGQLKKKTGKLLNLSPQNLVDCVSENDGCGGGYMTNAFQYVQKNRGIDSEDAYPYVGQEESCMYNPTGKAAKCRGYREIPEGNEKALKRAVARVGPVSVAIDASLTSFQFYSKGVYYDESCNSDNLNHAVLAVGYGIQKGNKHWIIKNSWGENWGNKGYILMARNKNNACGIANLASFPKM
Put plainly: Measurement of cathepsin K inhibitory activity. The following applies: Dixon plot, fluorogenic substrate, pH 5.5, 37° C. The procedure:
(i) Measurement of Cathepsin K Inhibitory Activity
65 μL of Cathepsin K enzyme reaction buffer (50 mmol/L of 2-(N-morpholino)ethanesulfonate, 2 mmol/L of ethylenediamine tetraacetate (EDTA) and 4 mmol/L of dithiothreitol (DTT) were mixed to adjust to pH 5.5), 5 μL of cysteine protease inhibitor solution of several concentrations, 20 μL of synthesized substrate (t-butyloxycarbonyl-L-alanyl-glycyl-L-prolyl-L-arginine-4-methyl-chromanyl-7-amide) solution of several concentrations and 10 μL of cathepsin K enzyme solution were mixed and the increase of fluorescence intensity when reacted at 37° C. was measured (λex (excitation wavelength)=355 nm, λem (fluorescence wavelength)=460 nm). As to the substrate and the compound of the present invention, enzyme reactions were carried out in combination of several appropriate concentrations and Dixon plotting was prepared, to define the absolute value of X-coordinate of the intersection point of the graph as Ki value.

Sequence of cathepsin L (P07711 114-333, species assumed): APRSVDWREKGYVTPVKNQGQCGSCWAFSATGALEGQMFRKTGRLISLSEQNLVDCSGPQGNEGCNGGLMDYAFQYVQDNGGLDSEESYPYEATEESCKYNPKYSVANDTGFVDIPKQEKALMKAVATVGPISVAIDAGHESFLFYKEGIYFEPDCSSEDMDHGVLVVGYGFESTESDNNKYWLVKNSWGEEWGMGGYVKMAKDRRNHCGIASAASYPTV
Sequence of cathepsin S (P25774 115-331, species assumed): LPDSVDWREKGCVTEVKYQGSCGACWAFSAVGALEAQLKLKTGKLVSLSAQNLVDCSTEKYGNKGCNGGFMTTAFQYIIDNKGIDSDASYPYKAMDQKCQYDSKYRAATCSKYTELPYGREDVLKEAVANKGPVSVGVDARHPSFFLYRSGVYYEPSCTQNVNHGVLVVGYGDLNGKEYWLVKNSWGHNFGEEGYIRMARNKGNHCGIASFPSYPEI

What is called inhibition is the percentage by which the read-out fell short of the control. Higher therefore signals strong suppression. As to `CC(C)C[C@H](NC(=O)OCc1ccccc1)C(=O)N[C@@H](CC(C)C)C(=O)c1nn(CC2CCC2)c(=O)o1` [1 (21), (2S)-N-[(2S)-1-(3-cyclobutylmethyl-2-oxo-1,3,4-oxadiazolin-5-yl)-4-methyl-1-oxo-2-pentyl]-2-benzyloxycarbonylamino-4-methylpentanamide], the inhibition at 1 µM in assay [1] turned out to be 92%.

The compound `CC(C)C[C@H](NC(=O)[C@@H]1CCCC[C@@H]1NC(=O)c1ccccc1)C(=O)c1nnc(SCc2ccccc2)o1` [3 (5), 1-[(1R,2S)-2-benzoylaminocyclohexyl]-N-[(2S)-1-(5-benzylthio-1,3,4-oxadiazol-2-yl)-4-methyl-1-oxo-2-pentyl]carboxamide] showed an inhibition at 1 µM in assay [2] of 100%.

Consider `CSc1nnc(C(=O)[C@H](CCc2ccccc2)NC(=O)[C@@H]2CCCC[C@@H]2NC(=O)c2ccccc2)o1` [3 (7), 1-[(1R,2S)-2-benzoylaminocyclohexyl]-N-[(2S)-1-(5-methylthio-1,3,4-oxadiazol-2-yl)-1-oxo-4-phenyl-2-butyl]carboxamide], for which, in assay [3], testing at 1 µM gave an inhibition of 100%.

A word on the Ki: it is a dissociation constant, usually derived from enzyme kinetics or from competition with a known ligand. With `CC(C)C[C@H](NC(=O)OCc1ccccc1)C(=O)N[C@@H](CC(C)C)C(=O)c1nnc(SC(C)C)o1` [example 3], the inhibitory constant (Ki) in assay [4] was found to be 1.3 nM.
